This note sets out measurements from patent US10829486B2, “Isoxazole derivatives as FXR agonists and methods of use thereof” (ENANTA PHARMACEUTICALS, INC., priority 2018, dated 2020).

Broadly, the EC50 is the concentration needed to bring the measured effect to its halfway point. A higher EC50 goes with lower potency in that assay. The Emax is the greatest response seen or fitted, relative to the assay's reference.

The structures appear in SMILES notation.

In the assay the target is T1, human FXR (NR1H4) (Homo sapiens, UniProt Q96RI1).
T1 construct: host or cells: CHO (Chinese hamster ovary) reporter cells
T1 sequence (Q96RI1 1-486): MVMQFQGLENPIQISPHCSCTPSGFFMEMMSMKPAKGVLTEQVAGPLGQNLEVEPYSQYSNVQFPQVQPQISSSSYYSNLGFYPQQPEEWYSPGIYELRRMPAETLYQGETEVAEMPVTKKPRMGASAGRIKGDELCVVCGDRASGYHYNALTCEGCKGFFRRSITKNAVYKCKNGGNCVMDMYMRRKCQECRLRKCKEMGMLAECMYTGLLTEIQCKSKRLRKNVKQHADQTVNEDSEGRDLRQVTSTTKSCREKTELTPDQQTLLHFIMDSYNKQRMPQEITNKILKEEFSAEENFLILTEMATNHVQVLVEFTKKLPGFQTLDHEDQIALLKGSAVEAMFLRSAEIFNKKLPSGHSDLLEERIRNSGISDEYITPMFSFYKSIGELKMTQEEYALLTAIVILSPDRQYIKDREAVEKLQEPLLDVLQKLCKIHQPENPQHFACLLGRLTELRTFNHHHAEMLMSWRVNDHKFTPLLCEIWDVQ
The assay can be described thus: Human FXR (NR1H4) Assay (Gal4 promoter driven luciferase reporter assay in CHO cells). The following applies: for EC50: CHO cells expressing human NR1H4, 22 hours incubation, potency ranges; for Emax: efficacy normalized to CDCA set as 100%, CHO cells expressing human NR1H4. Type of assay: cell-based. The text has this:
Determination of a ligand mediated Gal4 promoter driven transactivati on to quantify ligand binding mediated activation of FXR. FXR Reporter Assay kit purchased from Indigo Bioscience (Catalogue number: IB00601) to determine the potency and efficacy of compound developed by Enanta that can induce FXR activation. The principle application of this reporter assay system is to quantify functional activity of human FXR. The assay utilizes non-human mammalian cells, CHO (Chinese hamster ovary) cells engineered to express human NR1H4 protein (referred to as FXR). Reporter cells also incorporate the cDNA encoding beetle luciferase which catalyzes the substrates and yields photon emission. Luminescence intensity of the reaction is quantified using a plate-reading luminometer, Envision. Reporter Cells include the luciferase reporter gene functionally linked to an FXR responsive promoter. Thus, quantifying changes in luciferase expression in the treated reporter cells provides a sensitive surrogate measure of the changes in FXR activity. EC50 and efficacy (normalize to CDCA set as 100%) is determined by XLFit. The assay is according to the manufacturer's instructions. In brief, the assay was performed in white, 96 well plates using final volume of 100 ul containing cells with different doses of compounds. Retrieve Reporter Cells from −80° C. storage. Perform a rapid thaw of the frozen cells by transferring a 10 ml volume of 37° C. cell recovery medium into the tube of frozen cells. Recap the tube of Reporter Cells and immediately place it in a 37° C. water bath for 5-10 minutes. Retrieve the tube of Reporter Cell Suspension from the water bath. Sanitize the outside surface of the tube with a 70% alcohol swab, and then transfer it into the cell culture hood. Dispense 90 μl of cell suspension into each well of the 96-well Assay Plate. Transfer the plate into 37° C. incubator, allowing the cells adherent to the bottom of the well. Dilute compounds in Dilution Plate (DP), and administrate to cells at Assay Plate (AP). DMSO content of the samples was kept at 0.2%. Cells were incubated for additional 22 hours before luciferase activities were measured. Thirty minutes before intending to quantify FXR activity, remove Detection Substrate and Detection Buffer from the refrigerator and place them in a low-light area so that they may equilibrate to room temperature. Remove the plate's lid and discard all media contents by ejecting it into an appropriate waste container. Gently tap the inverted plate onto a clean absorbent paper towel to remove residual droplets. Cells will remain tightly adhered to well bottoms. Add 100 μl of luciferase detection reagent to each well of the assay plate. Allow the assay plate to rest at room temperature for at least 5 minutes following the addition of LDR. Set the instrument (Envision) to perform a single 5 second “plate shake” prior to reading the first assay well. Read time may be 0.5 second (500 mSec) per well. EC50 and Efficacy (normalize to CDCA set as 100%) is determined by XLFit.
The efficacy was normalized to CDCA set as 100%. (A=EC50<0.1 μM; B=0.1 μM<EC50<1.0 μM; C=1.0 μM<EC50<10 μM; D=EC50>10 μM).
A general note: In a reporter assay the amount or activity of a reporter protein is the signal.

As for `CC(C)Oc1cc(C(=O)O)cc2sc(N(C)[C@@H]3CC[C@H](OCc4c(-c5c(Cl)cccc5Cl)noc4C4CC4)C3)nc12` [Example 1], the EC50 is below 100 nM and the Emax is 96%.
Consider `CC(C)Oc1cc(C(=O)O)cc2sc(N[C@@H]3CC[C@H](OCc4c(-c5ccccc5OC(F)(F)F)noc4C4CC4)C3)nc12` [Example 11], for which the EC50 is below 100 nM and the Emax was 92%.
`CC(C)Oc1cc(C(=O)O)cc2sc(N(C)[C@H]3CC[C@H](OCc4c(-c5c(Cl)cccc5Cl)noc4C4CC4)C3)nc12` [Example 3] yielded an EC50 of 100 to 1000 nM and a maximal response (Emax) of 58%.
The like results for `CC(C)Oc1cc(C(=O)O)cc2sc(N(C)[C@H]3CC[C@H](OCc4c(-c5c(Cl)cccc5Cl)noc4C4CC4)CC3)nc12` [Example 5] were, in that order, below 100 nM and 85%.
Take `O=C(O)c1cc(F)c2nc(N[C@@H]3CC[C@H](OCc4c(-c5c(Cl)cccc5Cl)noc4C4CC4)C3)sc2c1` [Example 9]: the EC50 is below 100 nM and the Emax was 104%.
The matching figures for `CN(c1ccc2cc(C(=O)O)ccc2n1)[C@@H]1CC[C@H](OCc2c(-c3ccccc3OC(F)(F)F)noc2C2CC2)C1` [Example 7]: below 100 nM and 57%.
Turning to `CC(C)Oc1cc(C(=O)O)cc2sc(N(C)[C@H]3CC[C@@H](OCc4c(-c5c(Cl)cccc5Cl)noc4C4CC4)C3)nc12` [Example 2], the EC50 is below 100 nM and the Emax was 75%.
In turn, `O=C(O)c1cc(F)c2nc(N[C@H]3CC[C@@H](OCc4c(-c5c(Cl)cccc5Cl)noc4C4CC4)CC3)sc2c1` [Example 16] registered an EC50 of 100 to 1000 nM and an Emax of 24%.
The like results for `CC(C)Oc1cc(C(=O)O)cc2sc(N[C@H]3CC[C@@H](OCc4c(-c5ccccc5OC(F)(F)F)noc4C4CC4)CC3)nc12` [Example 17] were, in that order, below 100 nM and 91%.
The matching figures for `O=C(O)c1ccc2nc(N[C@H]3CC[C@@H](OCc4c(-c5c(Cl)cccc5Cl)noc4C4CC4)CC3)sc2c1` [Example 18]: below 100 nM and 52%.
`CC(C)Oc1cc(C(=O)O)cc2sc(N(C)[C@@H]3CC[C@H](OCc4c(-c5ccccc5OC(F)(F)F)noc4C4CC4)C3)nc12` [Example 6] had an EC50 below 100 nM and an Emax of 67%.
The like results for `CC(C)Oc1cc(C(=O)O)cc2sc(N(C)[C@H]3CC[C@@H](OCc4c(-c5c(Cl)cccc5Cl)noc4C4CC4)CC3)nc12` [Example 15, 2-(((1s,4s)-4-((5-cyclopropyl-3-(2,6-dichlorophenyl)isoxazol-4-yl)methoxy)cyclohexyl)(methyl)amino)-4-isopropoxybenzo[d]thiazole-6-carboxylic acid] were, in that order, below 100 nM and 65%.
The matching figures for `CC(C)Oc1cc(C(=O)O)cc2sc(N(C)[C@@H]3CC[C@@H](OCc4c(-c5c(Cl)cccc5Cl)noc4C4CC4)C3)nc12` [Example 4]: 100 to 1000 nM and 73%.
Compound `CC(C)Oc1cc(C(=O)O)cc2sc(N[C@H]3CC[C@@H](OCc4c(-c5c(Cl)cccc5Cl)noc4C4CC4)CC3)nc12` [Example 14, 2-(((1s,4s)-4-((5-cyclopropyl-3-(2,6-dichlorophenyl)isoxazol-4-yl)methoxy)cyclohexyl)amino)-4-isopropoxybenzo[d]thiazole-6-carboxylic acid] displayed an EC50 below 100 nM and an Emax of 84%.
Turning to `O=C(O)c1cc(F)c2nc(N[C@@H]3CCC(OCc4c(-c5ccccc5OC(F)(F)F)noc4C4CC4)C3)sc2c1` (stereo partly drawn) [Example 10], the half-maximal effective concentration (EC50) was below 100 nM and the Emax came out at 81%.
`O=C(O)c1ccc2nc(N[C@@H]3CCC(OCc4c(-c5c(Cl)cccc5Cl)noc4C4CC4)C3)sc2c1` (stereo partly drawn) [Example 19]: the EC50 is 100 to 1000 nM and the Emax worked out at 116%.
Compound `CC(C)Oc1cc(C(=O)NS(=O)(=O)C2CC2)cc2sc(N[C@@H]3CCC(OCc4c(-c5c(Cl)cccc5Cl)noc4C4CC4)C3)nc12` (stereo partly drawn) [Example 20] showed an EC50 of 100 to 1000 nM and an Emax of 111%.
The matching figures for `CC(C)Oc1cc(C(=O)O)cc2sc(N[C@@H]3CC[C@H](OCc4c(-c5c(Cl)cccc5Cl)noc4C4CC4)C3)nc12` [Example 8]: below 100 nM and 99%.
